Results reported in patent US20060046982A1, “Orthomolecular medical use of L-citrulline for capillary endothelial protection and adjacent cell protection in neurodegenerative disease” (priority 2004, published 2006).

Tests used:
[1] = Case report: person taking L-citrulline capsules daily for 8 years; settings: donor one; long-term L-citrulline intake
[2] = tested on: Human plasma Cohn fraction 1V-1 protein; test: Turbidimetric test of protein insolubility induced by Fenton-like reaction (ferrous sulfate + H2O2), nephelometer; type: biochemical; settings: amino acid at 400 microMol/L; 100 microMol/L ferrous sulfate + 40 microMol/L H2O2; pH 5.7-5.8; 37° Celsius, 30 minutes
Method: Human plasma Cohn fraction 1V-1 protein solutions (predominately alpha glycoglobulins, rich in lipid—obtained from Sigma Chemical Co.) of 40 mg/dl in saline solutions (140 NaCl mMol/L) were employed at existing pHs of 5.7-5.8 without additional confounding non-protein buffer. A nephelometer measured the intensity of reflected Tydall light. Developed turbidities were measured to quantify the insolubities of the dissolved proteins that were induced by introducing 100 microMol/L of ferrous sulfate and 40 microMol/L of H2O2 with incubations at 37° Celsius for 30 minutes. Insolubilities were standardized as the percent of maximal possible induced turbidities by comparison to similar protein solutions after mixing with the protein-precipitating agent sulfosalicylic acid at 1.5 g/dL.

| SMILES | Fasting blood glucose [1] | Hematocrit [1] [%] | blood hemoglobin [1] [g/dL] | total leucocyte count [1] | mean inhibition of the insolubilities induced by the Fenton-like reactions [2] |
| --- | --- | --- | --- | --- | --- |
| NC(=O)NCCC[C@H](N)C(=O)O [L-citrulline] | within the normal range | 38.5 | 13.6 | 6.800 /mcL | did not inhibit |
| NC(=O)CC[C@H](N)C(=O)O [L-glutamine] | – | – | – | – | did not inhibit |
| N[C@@H](Cc1c[nH]cn1)C(=O)O [L-histidine free base, L-histidine] | – | – | – | – | 52.6% |
